Assay results from patent publication US20260137790A1, “MIXED VASOPRESSIN RECEPTOR AGONIST-ANTAGONIST FOR MODULATING MEAN ARTERIAL PRESSURE” (FERRING B.V., priority 2022, published 2026).
Like-named read-outs stand apart in the source and are kept apart here. Starred links: 1 amine or outer side, 2 acyl side, 3 side chain; linkers in the order of their positions; H or OH if unused. Positions of bridges follow the written chain, without caps; N, C: chain ends. Non-standard residues stand in square brackets, D forms with d. Residues, ends and D or L forms follow the SMILES beside them. Groups on a side chain read outwards from the residue. Chains are numbered I, II in the order given. *: point of attachment. X1 = CC(=O)NCCCC[C@H](NC(=O)CC[C@H](N)C(N)=O)C(=O)*; isoGln = NC(=O)[C@H](CCC(=O)[*:2])N[*:1]; εLys = N[C@@H](CCCCN[*:1])C(=O)[*:2]; Dab = NCC[C@H](N)C(=O)O; PhAc = O=C(Cc1ccccc1)*

Key:
[1] = SC (bolus) injection of high/low buffer compositions in rats: bioavailability, M1 formation; format: in vivo, rat; conditions: for bioavailability: rat, in vivo, sc, bioavailability of Compound 1, rats
[2] = human, in vivo; for AUC: M1 AUC; for Tmax: M1 tmax
Experimental: (§1) The trial comprised two treatment periods, treatment Period 1 and treatment Period 2 (see FIG. 1).
(§2) The study was conducted in two periods where the treatment in Period 1 was administered as an intravenous infusion, and the treatment in Period 2 was administered as subcutaneous injections. The trial comprised 5 ascending dose panels, each dose panel comprising 8 healthy subjects (6 active, 2 placebo). A new cohort of subjects was used for each dose panel.
(§3) If no safety concerns arose, as judged by the Investigator, the remaining subjects in that dose group were randomized and treated according to the randomization and protocol in a staggered dosing manner.
(§4) Treatment period 2: After a resting period of 2-18 days each subject received a once daily subcutaneous dose for 5 days of the same treatment as in Period 1. The dose was selected to prevent the exposure to exceed the intravenous exposure. […] A SRC evaluated the safety and tolerability of the compound after the completion of all subjects in the dose group.
(§5) The continuation of the same subjects from intravenous to subcutaneous administration was selected to get an as reliable as possible estimate of the bioavailability (F) in the small groups outlined.
(§6) The intravenous dose to the first dose panel was the lowest dose giving a clear signal of pharmacological activity in the preceding trial. The administration was performed by using a piston-driven syringe auto-infusion pump. The administered volume was recorded for each subject.
(§7) In Period 2, subjects received a once-daily subcutaneous injection for 5 days of the same treatment as in Period 1 at different locations on the abdomen (Table 5). The subcutaneous doses were selected based on data from a previous trial.

[3] = Metabolite M1 formation in healthy rats after IV bolus and SC (bolus) injection; format: in vivo; conditions: rat
Source text: A similar study in healthy rats was used to evaluate the differences between metabolite formation of Compound 1 after IV bolus and SC (bolus) injection.

[4] = in vivo
Experimental: as §1, §2, §3, §4, §5, §6, §7

[5] = tested on: methionine/choline-deficient (MCD) diet rats; assay: Methionine/choline-deficient (MCD) diet rat model, MAP and portal pressure; conditions: for Δ MAP, mean / Δ PP, mean: 100 μg/kg IA
[6] = tested on: adult male cynomolgus monkeys; assay: Telemetry MAP in healthy monkeys, Compound 1 versus terlipressin; format: in vivo, cynomolgus monkey; conditions: monkey
Experimental: The in-life portion of the study was performed over multiple dosing sessions using six non-naive adult male cynomolgus monkeys. Animals were previously (3-4 weeks before study start) instrumented with indwelling pressure telemetry devices and trained to be restrained in chairs. Animals had access to food and drinking water ad libitum.
Stock solutions were diluted in saline on the day of administration. Animals with indwelling pressure telemetry devices were trained to be restrained in chairs for 8-h periods.
On the day of administration, animals were restrained, and telemetric measurements were collected continuously starting ≥2 h before administration. Baseline values of arterial pressure (diastolic and systolic), heart rate, and body temperature were obtained. […].
The data reported herein were collected over 19 dosing sessions of four animals each, using a total of six monkeys. Animals were repeat dosed in a crossover design with at least one animal receiving vehicle for each round; the animal receiving vehicle was varied between rounds. A 48- to 72-h washout period was used between dosing sessions. Animals were observed by camera for ˜1 h before dosing (covering the baseline period) and up to 3 h after dosing.

## CC[C@H](C)[C@@H]1NC(=O)[C@H](Cc2ccccc2)NC(=O)[C@@H](N)CSSC[C@@H](C(=O)N2CCC[C@H]2C(=O)N[C@@H](CCNC(=O)[C@@H](N)CCCCNC(=O)[C@H](CCCCNC(C)=O)NC(=O)CC[C@H](NC(=O)[C@H](CCCNC(=N)N)NC(=O)[C@@H]2CCCN2C(=O)[C@H](C)NC(=O)[C@H](CC(N)=O)NC(=O)[C@H](CCC(N)=O)NC(=O)[C@H](Cc2ccccc2)NC(=O)[C@@H](Cc2ccc(OC)cc2)NC(=O)Cc2ccccc2)C(N)=O)C(=O)NCC(N)=O)NC(=O)[C@H](CC(N)=O)NC(=O)[C@H](CCC(N)=O)NC1=O [Compound 1] (I: H-CFIQNCP[Dab]G-NH2 / II: PhAc-[dY](Me)FQNAPR[isoGln]K(Ac)[εLys]; disulfide I:1-I:6; amide I:8-II:C)
[1]; buffer about 10 mM
  bioavailability: ~13%
[1]; buffer about 100 mM
  bioavailability: ~37%

## CC[C@H](C)[C@@H]1NC(=O)[C@H](Cc2ccccc2)NC(=O)[C@@H](N)CSSC[C@@H](C(=O)N2CCC[C@H]2C(=O)N[C@@H](CCNC(=O)[C@@H](N)CCCCNC(=O)[C@H](CCCCNC(C)=O)NC(=O)CC[C@H](N)C(N)=O)C(=O)NCC(N)=O)NC(=O)[C@H](CC(N)=O)NC(=O)[C@H](CCC(N)=O)NC1=O [Compound M1] (H-CFIQNCP[Dab]([εLys-X1])G-NH2; disulfide 1-6)
[1]; rats
  relative amount of M1 formed, more with 10 mM than with 100 mM buffer: at least 15%
[1]; rats, in some cases
  relative amount of M1 formed, less with high vs lower buffer concentration: about 50%
[2]; iv, 0.9 mg, M1 mean Cmax
  Cmax: 0.1 to 0.25 ng/mL
[2]; iv, M1 harmonic mean terminal half-life
  half-life: ~240 min
[2]; sc, 0.1 mg, geometric mean
  AUC: 2.51 ng·h/mL
[2]; sc, 0.1 mg, max
  AUC: 3.5 ng·h/mL
  Tmax: 120 min
[2]; sc, 0.1 mg, mean
  AUC: 2.6 ng·h/mL
  Tmax: 48 min
[2]; sc, 0.1 mg, min
  AUC: 1.71 ng·h/mL
  Tmax: 18 min
[2]; sc, 0.1 mg, M1 Cmax, geometric mean
  Cmax: 0.9 ng/mL
[2]; sc, 0.1 mg, M1 Cmax, max
  Cmax: 1.28 ng/mL
[2]; sc, 0.1 mg, M1 Cmax, mean
  Cmax: 0.93 ng/mL
[2]; sc, 0.1 mg, M1 Cmax, min
  Cmax: 0.7 ng/mL
[2]; sc, 0.1 mg, M1 t1/2, harmonic mean
  half-life: 90 min
[2]; sc, 0.1 mg, M1 t1/2, max
  half-life: 126 min
[2]; sc, 0.1 mg, M1 t1/2, mean
  half-life: 96 min
[2]; sc, 0.1 mg, M1 t1/2, min
  half-life: 60 min
[2]; sc, 0.1 mg, median
  Tmax: 30 min
[2]; sc, 0.3 mg, geometric mean
  AUC: 6.71 ng·h/mL
[2]; sc, 0.3 mg, max
  AUC: 10.2 ng·h/mL
  Tmax: 66 min
[2]; sc, 0.3 mg, mean
  AUC: 7.55 ng·h/mL
  Tmax: 48 min
[2]; sc, 0.3 mg, min
  AUC: 3.2 ng·h/mL
  Tmax: 30 min
[2]; sc, 0.3 mg, min, max (n 1)
  AUC: 11.3 ng·h/mL
[2]; sc, 0.3 mg, M1 Cmax, geometric mean
  Cmax: 1.63 ng/mL
[2]; sc, 0.3 mg, M1 Cmax, max
  Cmax: 2.93 ng/mL
[2]; sc, 0.3 mg, M1 Cmax, mean
  Cmax: 2.01 ng/mL
[2]; sc, 0.3 mg, M1 Cmax, min
  Cmax: 0.6 ng/mL
[2]; sc, 0.3 mg, M1 harmonic mean terminal half-life
  half-life: 90 to 120 min
[2]; sc, 0.3 mg, M1 t1/2, harmonic mean
  half-life: 114 min
[2]; sc, 0.3 mg, M1 t1/2, max
  half-life: 144 min
[2]; sc, 0.3 mg, M1 t1/2, mean
  half-life: 120 min
[2]; sc, 0.3 mg, M1 t1/2, min
  half-life: 90 min
[2]; sc, 0.3 mg, M1 t1/2, min, max (n 1)
  half-life: 126 min
[2]; sc, 0.3 mg
  Tmax: 30 to 90 min
[2]; sc, 0.3 mg, median
  Tmax: 60 min
[3]
  Compound 1 converted to M1: 80-90%
[4]; human, iv
  M1 time of Cmax: approx. 5 hours
[4]; human, sc, 0.1 mg
  M1 AUC, geometric mean: 2.68 ng·h/mL
  M1 AUC, max: 3.10 ng·h/mL
  M1 AUC, mean: 2.70 ng·h/mL
  M1 AUC, min: 2.39; h*ng/mL
  M1 Cmax, geometric mean: 0.98 ng/mL
  M1 Cmax, max: 1.27 ng/mL
  M1 Cmax, mean: 1.01 ng/mL
  M1 Cmax, min: 0.74; ng/mL
  M1 t1/2, harmonic mean: 1.4 h
  M1 t1/2, max: 2.2 h
  M1 t1/2, mean: 1.6 h
  M1 t1/2, min: 0.8; h
  M1 tmax, min: 0.5; h
[4]; human, sc, 0.3 mg
  M1 Cmax, geometric mean: 1.76 ng/mL
  M1 Cmax, max: 3.62 ng/mL
  M1 Cmax, mean: 2.24 ng/mL
  M1 Cmax, min: 0.86; ng/mL
  M1 t1/2, mean: 2.1 h
  M1 tmax, mean: 1.5 h
  M1 tmax, median: 1.5 h
  M1 tmax, min: 1.0; h
[4]; iv
  formation of M1: 0-15%

## NCCCC[C@H](NC(=O)[C@@H]1CCCN1C(=O)[C@@H]1CSSC[C@H](NC(=O)CNC(=O)CNC(=O)CN)C(=O)N[C@@H](Cc2ccc(O)cc2)C(=O)N[C@@H](Cc2ccccc2)C(=O)N[C@@H](CCC(N)=O)C(=O)N[C@@H](CC(N)=O)C(=O)N1)C(=O)NCC(N)=O [Terlipressin] (H-GGGCYFQNCPKG-NH2; disulfide 4-9)
[5]; 0 min
  Δ MAP, mean: 0.0 mmHg
  Δ PP, mean: 0.0 mmHg
[5]; 1 min
  Δ MAP, mean: 6.1 mmHg
  Δ PP, mean: −1.5 mmHg
[5]; 2 min
  Δ MAP, mean: 10.8 mmHg
  Δ PP, mean: −2.1 mmHg
[5]; 3 min
  Δ MAP, mean: 18.1 mmHg
  Δ PP, mean: −2.3 mmHg
[5]; 5 min
  Δ MAP, mean: 26.3 mmHg
  Δ PP, mean: −2.4 mmHg
[5]; 7 min
  Δ MAP, mean: 30.1 mmHg
  Δ PP, mean: −2.5 mmHg
[5]; 10 min
  Δ MAP, mean: 32.0 mmHg
  Δ PP, mean: −2.4 mmHg
[5]; 15 min
  Δ MAP, mean: 32.9 mmHg
  Δ PP, mean: −2.5 mmHg
[5]; 20 min
  Δ MAP, mean: 33.5 mmHg
  Δ PP, mean: −2.6 mmHg
[5]; 30 min
  Δ MAP, mean: 31.7 mmHg
  Δ PP, mean: −2.5 mmHg
[5]; 60 min
  Δ MAP, mean: 13.3 mmHg
  Δ PP, mean: −2.8 mmHg
[5]; 90 min
  Δ MAP, mean: 5.2 mmHg
  Δ PP, mean: −0.8 mmHg
[5]; 100 μg/kg intra-arterial
  highest observed absolute MAP: 116.6±4.1 mmHg
  maximum ΔMAP: 33.5±2.6 mmHg
  maximum ΔPP: −2.8±0.8 mmHg
[6]; IV bolus 0.03 mg/kg
  average increase in MAP between 30 min and 5 h: 6.0 mmHg
  maximum MAP increase from baseline: 29.6±3.6 mmHg
[6]; IV bolus 0.09 mg/kg
  average increase in MAP between 30 min and 5 h: 5.8 mmHg
  maximum MAP increase from baseline: 29.9±6.2 mmHg
[6]; IV bolus 0.17 mg/kg
  average increase in MAP between 30 min and 5 h: 14.6 mmHg
  maximum MAP increase from baseline: 50.8±5.6 mmHg
[6]; IV bolus 0.34 mg/kg
  average increase in MAP between 30 min and 5 h: 14.7 mmHg
  maximum MAP increase from baseline: 41.2±7.5 mmHg
[6]; IV bolus, across groups
  time of maximum MAP increase: 5 to 30 min
[6]; IV bolus, all groups
  time by which Δ MAP was negligible: 150 min
